≈ marks a conversion by molar mass, not a printed value.
How the values were obtained:
[1] = test system: MRP1/2 in MCF-7 cells; assay: MDR transporter activity assay, MRP in MCF-7; type: cell-based, human; conditions: MCF-7, 10 µg/mL, 24 h
Protocol: (§1) An MDR Assay kit (Abcam, Cambridge, UK) was used following the manufacturer’s instructions. MCF-7 and MDA-MB-231 cells were incubated with compounds 1–3 (10 μg/mL and 20 μg/mL). After 24 h of incubation, the test cells were washed twice with 5 mL of PBS by centrifugation at 1200 rpm for 10 min. The supernatants were discarded and the cells were counted using a Scepter 3.0 handheld automated cell counter (Milipore, Burlington, MA, USA). Then, each of the tested samples was divided into three parts and analyzed. Tomeasure the activity of MDR1, MRP1 and BCRP (tubes 1–12), 5 μL of verapamil (MDR1 inhibitor) was added into tubes 1–3, 5 μL of MK-571 (MRP1 inhibitor) was added into tubes 4–6, 5 μL of noviobiocin (BCRP inhibitor) was added into tubes 7–9 and 125 μL DMEM with 1 μL of DMSO was added into tubes 10–12. Then, the samples were incubated at 37 °C for five minutes. After this time, 125 μL of Efflux Green Detection Reagent was added into tubes 1–12 and the samples were incubated for 30 min at 37 °C. After 25 min of incubation, 5 μL of PI was added to each tube. Thereafter, the samples were centrifuged for 10 min at 1200 rpm. The supernatants were discarded and the cells were resuspended in 500 μL of PBS and run on the flow cytometer immediately. Measurements were conducted on a BD FACSCanto II flow cytometer using FACSDiva software (version 6.1.3, BD Biosciences, San Diego, CA, USA). […]

[2] = test system: MCF-7 cells; assay: Cell cycle analysis (PI flow cytometry), MCF-7; type: cell-based, human; conditions: 24 h
Protocol: Cell cycle analyses of MCF-7 and MDA-MB-231 cells treated with compounds 1–3 and etoposide for 24 h were performed using a FACSCanto II flow cytometer (BD Bioscences Systems, San Diego, CA, USA). After incubation, breast cancer cells were trypsinized and fixed with cold ethanol (70%) and stored overnight at −20 °C. After removing ethanol, the cells were washed three times with PBS, treated with 50 μg/mL of DNase-free RNase A Solution (Promega, Madison, WI, USA) and stained with 100 μg/mL of PI. The results of measurements were analyzed using FCS Express 7 software (De Novo Software, Pasadena, CA, USA).

[3] = test system: MDA-MB-231 cells; parameters: method as in PMID 36345785; conditions: MTT; cited from earlier work
[4] = test system: MRP1/2 in MDA-MB-231 cells; assay: MDR transporter activity assay, MRP in MDA-MB-231; type: cell-based, human; conditions: 24 h
Protocol: (§2) An MDR Assay kit (Abcam, Cambridge, UK) was used following the manufacturer’s instructions. MCF-7 and MDA-MB-231 cells were incubated with compounds 1–3 (10 μg/mL and 20 μg/mL). After 24 h of incubation, the test cells were washed twice with 5 mL of PBS by centrifugation at 1200 rpm for 10 min. The supernatants were discarded and the cells were counted using a Scepter 3.0 handheld automated cell counter (Milipore, Burlington, MA, USA). Then, each of the tested samples was divided into three parts and analyzed. Tomeasure the activity of MDR1, MRP1 and BCRP (tubes 1–12), 5 μL of verapamil (MDR1 inhibitor) was added into tubes 1–3, 5 μL of MK-571 (MRP1 inhibitor) was added into tubes 4–6, 5 μL of noviobiocin (BCRP inhibitor) was added into tubes 7–9 and 125 μL DMEM with 1 μL of DMSO was added into tubes 10–12. Then, the samples were incubated at 37 °C for five minutes. After this time, 125 μL of Efflux Green Detection Reagent was added into tubes 1–12 and the samples were incubated for 30 min at 37 °C. After 25 min of incubation, 5 μL of PI was added to each tube. Thereafter, the samples were centrifuged for 10 min at 1200 rpm. The supernatants were discarded and the cells were resuspended in 500 μL of PBS and run on the flow cytometer immediately. Measurements were conducted on a BD FACSCanto II flow cytometer using FACSDiva software (version 6.1.3, BD Biosciences, San Diego, CA, USA). […] The calculations followed these formulas:MAFMDR1= 100 × (FMDR1 − F0)/FMDR1 MAFMRP= 100 × (FMRP − F0)/FMRP MAFBCRP= 100 × (FBCRP − F0)/FBCRP
(§3) • FMDR—MFI with MDR1 inhibitor (verapamil) • FMRP—MFI with MRP inhibitor (MK-571) • FBCRP—MFI with BCRP inhibitor (novobiocin) • F0—MFI without inhibitor
(§4) The theoretical range of the MAF values is between 0 and 100.

[5] = biological target: T1, BCRP in MDA-MB-231 cells (Homo sapiens, UniProt Q9UNQ0); assay: MDR transporter activity assay, BCRP in MDA-MB-231; type: cell-based; conditions: 24 h
T1 construct: endogenous in cells; host or cells: MCF-7 and MDA-MB-231 cells
T1 sequence (Q9UNQ0 1-655): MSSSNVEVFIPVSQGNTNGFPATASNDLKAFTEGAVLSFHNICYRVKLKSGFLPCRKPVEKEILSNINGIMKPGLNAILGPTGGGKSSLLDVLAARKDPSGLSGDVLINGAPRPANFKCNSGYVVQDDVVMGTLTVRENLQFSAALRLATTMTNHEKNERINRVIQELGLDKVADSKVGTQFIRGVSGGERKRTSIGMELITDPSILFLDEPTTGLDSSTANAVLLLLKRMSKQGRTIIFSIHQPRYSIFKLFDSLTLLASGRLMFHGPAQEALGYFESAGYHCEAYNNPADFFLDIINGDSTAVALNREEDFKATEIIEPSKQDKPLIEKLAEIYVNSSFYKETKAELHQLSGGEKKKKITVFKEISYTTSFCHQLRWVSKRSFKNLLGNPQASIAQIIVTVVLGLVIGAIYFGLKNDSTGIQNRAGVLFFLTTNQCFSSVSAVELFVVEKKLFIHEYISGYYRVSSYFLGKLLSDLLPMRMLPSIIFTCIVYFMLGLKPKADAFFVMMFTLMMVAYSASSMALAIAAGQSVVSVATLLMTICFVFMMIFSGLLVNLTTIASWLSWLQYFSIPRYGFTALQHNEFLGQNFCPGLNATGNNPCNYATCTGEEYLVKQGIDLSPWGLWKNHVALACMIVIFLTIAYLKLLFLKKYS
Protocol: as §2, §3, §4

[6] = biological target: T2, BCRP in MCF-7 cells (Homo sapiens, UniProt Q9UNQ0); assay: MDR transporter activity assay, BCRP in MCF-7; type: cell-based; conditions: MCF-7, 10 µg/mL, 24 h
T2 construct: endogenous in cells; host or cells: MCF-7 and MDA-MB-231 cells
T2 sequence (Q9UNQ0 1-655): T1 sequence (Q9UNQ0 1-655)
Protocol: as §1

[7] = biological target: T3, MDR1 (p-glycoprotein) in MCF-7 cells (Homo sapiens, UniProt P08183); assay: MDR transporter activity assay, MDR1 in MCF-7; type: cell-based; conditions: MCF-7, 10 µg/mL, 24 h
T3 construct: endogenous in cells; host or cells: MCF-7 and MDA-MB-231 cells
Protocol: as §1

T3 sequence (P08183 whole entry): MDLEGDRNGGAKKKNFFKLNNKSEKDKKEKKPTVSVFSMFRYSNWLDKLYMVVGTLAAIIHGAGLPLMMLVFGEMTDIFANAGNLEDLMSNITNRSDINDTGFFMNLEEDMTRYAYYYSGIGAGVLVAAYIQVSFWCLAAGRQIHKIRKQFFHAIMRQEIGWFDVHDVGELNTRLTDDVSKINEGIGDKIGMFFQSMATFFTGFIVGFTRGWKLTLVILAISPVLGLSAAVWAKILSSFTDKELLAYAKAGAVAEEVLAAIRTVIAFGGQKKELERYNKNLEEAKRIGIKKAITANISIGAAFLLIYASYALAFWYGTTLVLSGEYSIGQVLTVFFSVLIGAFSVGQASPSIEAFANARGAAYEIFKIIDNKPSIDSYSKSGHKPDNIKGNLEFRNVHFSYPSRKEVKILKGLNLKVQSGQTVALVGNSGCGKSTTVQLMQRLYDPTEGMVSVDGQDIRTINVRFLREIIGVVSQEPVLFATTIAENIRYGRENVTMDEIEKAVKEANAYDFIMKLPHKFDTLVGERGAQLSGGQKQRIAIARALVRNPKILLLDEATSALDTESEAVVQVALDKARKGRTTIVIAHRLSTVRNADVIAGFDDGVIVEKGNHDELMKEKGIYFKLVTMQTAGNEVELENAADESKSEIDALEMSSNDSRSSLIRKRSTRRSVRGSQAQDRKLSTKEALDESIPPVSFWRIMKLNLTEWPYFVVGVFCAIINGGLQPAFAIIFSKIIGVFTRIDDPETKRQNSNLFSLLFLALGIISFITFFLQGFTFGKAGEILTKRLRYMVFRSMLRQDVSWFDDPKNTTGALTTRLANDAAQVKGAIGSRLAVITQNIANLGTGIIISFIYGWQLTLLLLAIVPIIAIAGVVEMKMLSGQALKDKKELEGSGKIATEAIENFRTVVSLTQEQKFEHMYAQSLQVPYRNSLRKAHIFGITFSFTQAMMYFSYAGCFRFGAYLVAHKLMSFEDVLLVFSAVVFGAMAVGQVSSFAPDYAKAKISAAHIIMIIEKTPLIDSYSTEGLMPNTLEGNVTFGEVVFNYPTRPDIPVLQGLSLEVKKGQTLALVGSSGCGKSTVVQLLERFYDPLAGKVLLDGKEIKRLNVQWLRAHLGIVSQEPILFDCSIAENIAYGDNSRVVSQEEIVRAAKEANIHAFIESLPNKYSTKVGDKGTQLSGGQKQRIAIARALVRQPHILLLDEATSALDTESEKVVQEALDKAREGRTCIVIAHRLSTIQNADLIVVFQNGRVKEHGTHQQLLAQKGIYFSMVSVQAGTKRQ

| SMILES | MAF MRP [1] | cells in G2/M phase ([2]; MCF-7, 20 µg/mL) [%] | cells in S phase ([2]; MCF-7, 20 µg/mL) [%] | IC50 [3] [µM] | IC50 MDA-MB-231 [3] [µg/mL] | MAF MRP ([4]; MDA-MB-231, 10 µg/mL) | MAF MRP ([4]; MDA-MB-231, 20 µg/mL) | MAF BCRP ([5]; MDA-MB-231, 10 µg/mL) | MAF BCRP ([5]; MDA-MB-231, 20 µg/mL) | MAF BCRP [6] | MAF MDR1 (multidrug resistance activity factor) [7] | cells in G2/M phase ([2]; MCF-7, 10 µg/mL) [%] |
| --- | --- | --- | --- | --- | --- | --- | --- | --- | --- | --- | --- | --- |
| O=C(Cc1cccc2ccccc12)NNC(=S)Nc1ccc(/N=N/c2ccccc2)cc1 [Compound 2] | 9.9 | 32.2 | 40.7 | 17.4 ± 0.93 | 7.64 ± 0.41 (≈ 17.4 µM) | 7.0 | 1.8 | 4.9 | 1.4 | 15.4 | 9.1 |  |
| O=C(NNC(=S)Nc1ccc(/N=N/c2ccccc2)cc1)c1ccccc1[N+](=O)[O-] [Compound 3] | 5.3 |  | 49.1 | 24.9 ± 1.74 | 10.47 ± 0.73 (≈ 24.9 µM) |  | < 20 |  | < 20 | 7.0 | 5.7 | 35.3 |
